Where two headings read alike, the source gives them in different places.
Tests used:
TRPV1 [1] = assay: TRPV1 mRNA expression in F11 cells (RT PCR); type: cell-based; conditions: DF2755A 1 µM + CYP 100 nM
Excerpt: (§1) For these experiments, cells at 18th passage were used.
(§2) Triplicate samples were run for each gene.

CXCR2 [2] = system: CXCR2; set-up: method as in Lopes et al., 2016; conditions: ref Lopes et al., 2016; cited from earlier work
urinary bladder = type: in vivo; conditions: preventive: 20 mg kg^−1 + 7 mg kg^−1 twice daily for 7 days; CYP rats
Procedure: CYP was administered to the animals by the intraperitoneal (i.p.) route (5 ml kg^−1) at the dosage of 75 mg kg^−1 for three times every third day to elicit chronic bladder irritation, as previously described ([Vizzard et al., 1996]).
Animals pre-treated with the vehicle or a single high oral dose of DF2755A (20 mg kg^−1; 12 h before the first CYP administration) followed by repeated lower doses administration (7 mg kg^−1 twice daily for 7 days) during IC development were deeply anesthetized with isoflurane (4%) and then killed.
After killing, rat abdomen was opened through a midline incision, and bladder and proximal urethra were exposed. A catheter was inserted into the bladder through the urethra and a loose ligature was placed around the neck of the urinary bladder. Bladder was inflated with saline via the catheter to slightly distend the bladder and ligature was tightened to maintain proper distension. Bladder was then excised cutting above the insertion point of ureters, and therefore the bladder neck was not included into the bladder sample. Bladders were opened using scissors and, after gross macroscopic evaluation and weighing, each bladder was cut into two equal pieces (named B1 and B2) and weighted again individually. One piece (B1) was placed in Eppendorf, then snap-frozen in liquid nitrogen, and stored at −80°C until quantification using ELISA assay. The second piece (B2) was placed in 10% formalin and stored at room temperature. Then the same samples were placed in 70% ethanol, then processed in paraffin blocks, and then trimmed according to the longitudinal plane to ensure the correct analysis of all the bladder sample. Sections were stained with hematoxylin and eosin (HE), and slides were then digitalized using a Pathscan® Touch scanner in the bright field mode with a ×20 objective. For the microscopic observations of bladder inflammation, the following parameters were analyzed: bladder edema in scores (n = 10/group), bladder hemorrhage in scores (n = 10/group), urothelial loss in scores (n = 10/group), and total inflammatory score, which was calculated by adding all the individual lesion scores (n = 10/group).

Nav1.7 = Nav1.7 (Homo sapiens, UniProt Q15858); assay: Ion channel assay, agonist and antagonist mode; type: biochemical; conditions: up to 100 μM (maximum tested concentration)
Procedure: (§3) In addition, DF2755A was tested on TRPM8, TRPV1, TRPV4, TRPA1, and Nav1.7 ion channels in agonist and antagonist mode at eight concentrations in quadruplicate (100 μM was the highest tested concentration).

TRPM8 = TRPM8 (Homo sapiens, UniProt Q7Z2W7); assay: Ion channel assay, agonist and antagonist mode; type: biochemical; conditions: up to 100 μM (maximum tested concentration)
Procedure: as §3

TRPV4 = TRPV4 (Homo sapiens, UniProt Q9HBA0); assay: Ion channel assay, agonist and antagonist mode; type: biochemical; conditions: up to 100 μM (maximum tested concentration)
Procedure: as §3

TRPV1 [3] = target: TRPV1 (Homo sapiens, UniProt Q8NER1); assay: Ion channel assay, agonist and antagonist mode; type: biochemical; conditions: up to 100 μM (maximum tested concentration)
Procedure: as §3

TRPA1 = TRPA1 (Homo sapiens, UniProt O75762); assay: Ion channel assay, agonist and antagonist mode; type: biochemical; conditions: up to 100 μM (maximum tested concentration)
Procedure: as §3

CXCR2 [4] = assay: CXCR2 mRNA expression in F11 cells (RT PCR); type: cell-based; conditions: DF2755A 1 µM + CYP 100 nM
Excerpt: as §1, §2

CXCR1 = system: CXCR1; set-up: method as in Lopes et al., 2016; conditions: ref Lopes et al., 2016; cited from earlier work
[5] = Pharmacokinetics after single intravenous and oral administration; type: in vivo, male Wistar Han rats
Procedure: Pharmacokinetics of DF2755A, dissolved in saline solution (NaCl 0.9% w/v), was investigated after single intravenous and oral administrations in male Wistar Han rats. DF2755A was given as a single dose in three animals/group by intravenous (bolus) and oral (by gavage) administrations at a dose of 20 mg/kg. Pharmacokinetic evaluation was carried out on blood samples collected on day 1 at six time points from three animals/group (serial sampling).

[6] = system: panel of GPCRs, enzymes, ion channels, transporters, and nuclear receptors; assay: Safety screen off-target panel (Eurofins Cerep SafetyScreen44); type: binding; conditions: tested at 10 μM; all the receptors studied
Procedure: Selectivity assays were performed at Eurofins Cerep as a contract service. A summary of the protocol and the reference for the assays are listed on the Eurofins Cerep website at (https://www.eurofinsdiscoveryservices.com/catalogmanagement/viewItem/SafetyScreen44-Panel-Cerep/P270). The tested targets are listed below:
GPCRs: A2A (agonist radioligand), α1A (antagonist radioligand), α2A (antagonist radioligand), β1 (agonist radioligand), β2 (agonist radioligand), BK1 (antagonist and agonist radioligand), BK2 (antagonist and agonist radioligand), CB1 (antagonist and agonist radioligand), CB2 (antagonist and agonist radioligand), CCK1 (CCKA) (agonist radioligand), D1 (antagonist radioligand), D2 (antagonist and agonist radioligand), D3 (antagonist and agonist radioligand), ETA (agonist radioligand), H1 (antagonist radioligand), H2 (antagonist radioligand), M1 (antagonist radioligand), M2 (antagonist and agonist radioligand), M3 (antagonist radioligand), NK1 (agonist radioligand), δ (DOP) (agonist radioligand), κ(KOP) (agonist radioligand), µ(MOP) (agonist radioligand), ORL1 (agonist radioligand), 5-HT1A (agonist radioligand), 5-HT1B (antagonist radioligand), 5-HT2A (agonist radioligand), 5-HT2B (agonist radioligand), and V1a (agonist radioligand). […]

[7] = intravenous 20 mg kg^−1, male Wistar Han rats

TRPV4, sequence (Q9HBA0 whole entry, species assumed): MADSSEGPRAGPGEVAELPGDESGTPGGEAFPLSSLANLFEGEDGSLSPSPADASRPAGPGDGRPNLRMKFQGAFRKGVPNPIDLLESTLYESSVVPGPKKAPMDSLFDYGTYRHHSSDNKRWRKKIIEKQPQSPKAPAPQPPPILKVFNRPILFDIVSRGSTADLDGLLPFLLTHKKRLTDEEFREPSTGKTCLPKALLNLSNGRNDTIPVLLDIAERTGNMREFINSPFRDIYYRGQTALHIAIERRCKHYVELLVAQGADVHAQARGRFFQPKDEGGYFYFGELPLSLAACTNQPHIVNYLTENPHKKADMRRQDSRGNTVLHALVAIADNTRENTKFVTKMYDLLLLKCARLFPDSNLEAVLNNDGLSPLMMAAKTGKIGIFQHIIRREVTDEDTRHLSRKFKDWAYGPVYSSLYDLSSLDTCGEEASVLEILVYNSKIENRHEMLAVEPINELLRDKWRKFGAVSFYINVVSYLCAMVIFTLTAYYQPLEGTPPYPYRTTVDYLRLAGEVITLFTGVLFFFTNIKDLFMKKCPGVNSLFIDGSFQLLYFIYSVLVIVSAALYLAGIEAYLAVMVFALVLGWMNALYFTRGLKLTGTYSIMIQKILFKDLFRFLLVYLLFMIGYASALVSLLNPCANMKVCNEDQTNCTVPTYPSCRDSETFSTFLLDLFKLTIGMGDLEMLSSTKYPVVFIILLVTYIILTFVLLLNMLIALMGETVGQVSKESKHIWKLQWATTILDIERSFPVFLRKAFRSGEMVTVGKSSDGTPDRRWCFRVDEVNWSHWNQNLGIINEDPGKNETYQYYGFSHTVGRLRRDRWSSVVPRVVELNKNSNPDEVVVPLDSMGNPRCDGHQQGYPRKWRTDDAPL
TRPM8, sequence (Q7Z2W7 whole entry, species assumed): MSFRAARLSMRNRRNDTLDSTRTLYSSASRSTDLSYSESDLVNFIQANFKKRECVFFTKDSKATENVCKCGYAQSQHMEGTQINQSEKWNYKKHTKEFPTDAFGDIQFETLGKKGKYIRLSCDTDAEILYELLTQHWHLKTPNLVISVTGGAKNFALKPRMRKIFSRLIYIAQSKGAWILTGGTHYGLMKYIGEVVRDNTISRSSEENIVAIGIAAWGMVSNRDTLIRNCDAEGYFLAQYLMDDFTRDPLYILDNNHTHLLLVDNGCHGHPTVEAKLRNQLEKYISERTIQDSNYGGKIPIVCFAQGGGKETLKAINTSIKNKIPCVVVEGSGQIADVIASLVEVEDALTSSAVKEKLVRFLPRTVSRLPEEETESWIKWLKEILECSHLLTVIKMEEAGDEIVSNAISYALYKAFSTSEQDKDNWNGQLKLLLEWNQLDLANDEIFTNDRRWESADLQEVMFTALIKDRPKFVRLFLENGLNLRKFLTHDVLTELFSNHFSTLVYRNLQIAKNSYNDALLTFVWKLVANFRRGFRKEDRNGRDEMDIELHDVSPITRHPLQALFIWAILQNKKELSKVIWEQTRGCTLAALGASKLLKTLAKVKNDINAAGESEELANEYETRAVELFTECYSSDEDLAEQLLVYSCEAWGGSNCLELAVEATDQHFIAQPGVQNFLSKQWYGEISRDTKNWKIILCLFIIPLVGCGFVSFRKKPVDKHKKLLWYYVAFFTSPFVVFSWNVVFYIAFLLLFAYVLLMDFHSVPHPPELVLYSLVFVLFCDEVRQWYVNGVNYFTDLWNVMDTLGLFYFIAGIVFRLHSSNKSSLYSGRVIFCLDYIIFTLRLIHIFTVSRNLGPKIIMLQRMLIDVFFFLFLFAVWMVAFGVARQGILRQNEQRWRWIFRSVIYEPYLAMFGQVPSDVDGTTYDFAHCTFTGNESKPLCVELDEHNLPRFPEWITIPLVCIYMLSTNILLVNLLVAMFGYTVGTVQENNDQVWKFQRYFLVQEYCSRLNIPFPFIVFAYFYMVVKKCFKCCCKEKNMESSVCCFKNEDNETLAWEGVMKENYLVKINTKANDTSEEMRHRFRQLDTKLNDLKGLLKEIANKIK
Nav1.7, sequence (Q15858 whole entry): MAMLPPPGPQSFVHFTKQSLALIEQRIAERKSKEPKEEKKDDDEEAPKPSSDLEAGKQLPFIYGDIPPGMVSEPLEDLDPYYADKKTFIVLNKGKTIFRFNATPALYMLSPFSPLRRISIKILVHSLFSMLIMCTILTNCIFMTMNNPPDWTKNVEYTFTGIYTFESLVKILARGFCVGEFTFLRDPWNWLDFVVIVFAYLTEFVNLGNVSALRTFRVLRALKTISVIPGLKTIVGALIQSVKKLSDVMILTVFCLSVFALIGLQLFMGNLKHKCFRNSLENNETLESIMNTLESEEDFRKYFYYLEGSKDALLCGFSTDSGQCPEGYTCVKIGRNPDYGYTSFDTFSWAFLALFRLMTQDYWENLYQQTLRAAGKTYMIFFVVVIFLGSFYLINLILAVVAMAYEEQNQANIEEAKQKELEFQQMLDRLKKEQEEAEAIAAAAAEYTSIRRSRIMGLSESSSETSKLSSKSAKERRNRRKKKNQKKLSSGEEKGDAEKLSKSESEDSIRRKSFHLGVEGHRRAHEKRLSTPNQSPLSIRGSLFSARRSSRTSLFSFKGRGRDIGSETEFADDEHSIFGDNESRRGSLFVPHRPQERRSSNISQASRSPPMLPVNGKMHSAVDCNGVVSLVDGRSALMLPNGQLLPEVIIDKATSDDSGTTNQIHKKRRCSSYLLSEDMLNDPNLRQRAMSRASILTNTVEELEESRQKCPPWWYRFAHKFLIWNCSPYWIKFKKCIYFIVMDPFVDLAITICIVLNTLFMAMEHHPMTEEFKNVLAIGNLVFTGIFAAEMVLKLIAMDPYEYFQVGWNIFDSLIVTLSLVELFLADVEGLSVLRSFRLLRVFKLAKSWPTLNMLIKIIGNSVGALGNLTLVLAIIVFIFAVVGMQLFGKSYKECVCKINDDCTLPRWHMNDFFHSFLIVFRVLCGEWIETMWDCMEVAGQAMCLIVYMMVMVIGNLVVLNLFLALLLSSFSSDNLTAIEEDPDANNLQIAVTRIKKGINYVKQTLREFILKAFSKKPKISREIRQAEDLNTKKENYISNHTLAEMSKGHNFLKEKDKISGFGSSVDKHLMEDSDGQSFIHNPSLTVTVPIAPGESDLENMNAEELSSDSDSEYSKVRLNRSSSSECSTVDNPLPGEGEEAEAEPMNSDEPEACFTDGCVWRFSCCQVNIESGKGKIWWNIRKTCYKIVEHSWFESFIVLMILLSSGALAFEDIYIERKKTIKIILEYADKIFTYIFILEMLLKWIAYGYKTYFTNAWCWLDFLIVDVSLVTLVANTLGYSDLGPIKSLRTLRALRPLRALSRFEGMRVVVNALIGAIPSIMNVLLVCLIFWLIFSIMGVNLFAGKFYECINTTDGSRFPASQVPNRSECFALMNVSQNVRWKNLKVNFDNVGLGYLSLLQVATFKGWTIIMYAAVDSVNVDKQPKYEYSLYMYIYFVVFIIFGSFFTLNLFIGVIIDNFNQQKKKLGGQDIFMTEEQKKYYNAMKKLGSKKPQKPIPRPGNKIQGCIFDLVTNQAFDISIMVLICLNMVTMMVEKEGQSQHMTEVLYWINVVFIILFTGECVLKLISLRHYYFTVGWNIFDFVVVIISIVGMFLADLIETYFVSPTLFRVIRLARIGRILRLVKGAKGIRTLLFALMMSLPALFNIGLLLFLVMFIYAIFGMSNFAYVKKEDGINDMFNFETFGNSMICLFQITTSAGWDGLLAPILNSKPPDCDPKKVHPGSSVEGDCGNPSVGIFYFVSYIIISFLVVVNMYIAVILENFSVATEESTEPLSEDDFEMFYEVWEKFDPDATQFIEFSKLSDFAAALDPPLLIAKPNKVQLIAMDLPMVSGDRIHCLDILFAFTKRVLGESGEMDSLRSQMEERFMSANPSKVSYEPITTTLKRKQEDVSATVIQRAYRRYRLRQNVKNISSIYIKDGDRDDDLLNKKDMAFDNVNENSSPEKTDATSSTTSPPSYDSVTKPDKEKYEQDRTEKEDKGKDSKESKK
TRPV1 (Homo sapiens, UniProt Q8NER1), sequence (Q8NER1 whole entry, species assumed): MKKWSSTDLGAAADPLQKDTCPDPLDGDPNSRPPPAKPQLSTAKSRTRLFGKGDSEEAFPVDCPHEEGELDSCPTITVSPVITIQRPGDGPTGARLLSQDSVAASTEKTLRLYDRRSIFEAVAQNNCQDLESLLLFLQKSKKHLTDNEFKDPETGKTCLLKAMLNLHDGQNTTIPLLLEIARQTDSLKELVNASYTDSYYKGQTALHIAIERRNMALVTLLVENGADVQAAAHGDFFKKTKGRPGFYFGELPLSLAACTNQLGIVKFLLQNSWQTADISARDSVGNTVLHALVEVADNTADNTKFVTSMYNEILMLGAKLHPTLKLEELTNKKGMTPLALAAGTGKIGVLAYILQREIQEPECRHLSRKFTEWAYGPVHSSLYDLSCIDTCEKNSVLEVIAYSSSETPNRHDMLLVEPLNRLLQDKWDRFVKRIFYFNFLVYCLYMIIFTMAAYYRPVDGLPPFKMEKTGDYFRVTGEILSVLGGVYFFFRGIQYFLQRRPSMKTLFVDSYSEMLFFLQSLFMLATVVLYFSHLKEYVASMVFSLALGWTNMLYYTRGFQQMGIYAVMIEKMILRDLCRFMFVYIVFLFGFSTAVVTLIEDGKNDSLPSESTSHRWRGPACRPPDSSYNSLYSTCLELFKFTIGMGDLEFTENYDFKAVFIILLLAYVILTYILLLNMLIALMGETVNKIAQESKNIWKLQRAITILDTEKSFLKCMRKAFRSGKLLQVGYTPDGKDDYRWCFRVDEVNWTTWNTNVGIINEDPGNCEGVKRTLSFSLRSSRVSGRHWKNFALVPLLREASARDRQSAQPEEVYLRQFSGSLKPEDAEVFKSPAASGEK

C[C@H](C(=O)[O-])c1ccc(Nc2nc(C(F)(F)F)cs2)cc1.[Na+] [DF2755A, sodium (2S)-2-(4-{[4-(trifluoromethyl)-1,3-thiazol-2-yl]amino}phenyl)propanoate]
TRPV1 mRNA expression in CYP-exposed cells (TRPV1 [1]): restored TRPV1 mRNA expression to control values
IC50 (CXCR2 [2]): 2.1 nM
histological evaluated parameters (edema, hemorrhage, urothelial loss, total inflammatory score), DF2755A- versus vehicle-treated rats (urinary bladder): no significant difference
activity in agonism and antagonism mode (Nav1.7): no activity
activity in agonism and antagonism mode (TRPM8): no activity
activity in agonism and antagonism mode (TRPV4): no activity
activity in agonism and antagonism mode (TRPV1 [3]): no activity
activity in agonism and antagonism mode (TRPA1): no activity
CXCR2 mRNA expression in CYP-exposed cells (CXCR2 [4]): restored the mRNA expression of all the targets to control values
IC50 (CXCR1): 4.2 nM
overall systemic exposure (AUC0-t (last)) [5, 7]: 578,017 ng/mlh
systemic clearance [5, 7]: slow
half-life ([5]; male, Wistar Han, rat, plasma, 20 mg/kg, route not stated, read-out: half-life (converted)): 6.8 h
bioavailability ([5]; rat, plasma, po, 20 mg/kg, male Wistar Han rats, read-out: oral absolute bioavailability (F%)): 86.2%
C0 ([5]; rat, plasma, intravenous 20 mg kg^−1, male Wistar Han rats, read-out: Plasma concentration at time zero (C0)): 117 µg/mL
half-life ([5]; rat, plasma, intravenous 20 mg kg^−1, male Wistar Han rats, read-out: t1/2,z (converted)): 8.1 h
Vd ([5]; rat, plasma, intravenous 20 mg kg^−1, male Wistar Han rats, read-out: volume of distribution at steady state): < 1 L/kg
Tmax ([5]; rat, plasma, oral 20 mg/kg, male Wistar Han rats): 2 h
Cmax ([5]; rat, plasma, oral 20 mg/kg, male Wistar Han rats, read-out: maximum plasma concentration (Cmax)): 43.5 µg/mL
AUC(0-t) ([5]; rat, plasma, oral 20 mg/kg, male Wistar Han rats, read-out: overall systemic exposure (AUC0-t (last))): 498 µg·h/mL
distribution volume ([5]; route not stated): 0.35 L/kg
off-target effects in the safety screen assay [6]: neglectable effects

Source: publication PMC9096165 (Frontiers in Pharmacology, 2022)
